This note sets out measurements from ChEMBL document CHEMBL3217438, “Diphenylbutylpiperidine-based cell autophagy inducers: Design, synthesis and SAR studies” (Medchemcomm, 2011).

Where only a bound is given, the exact number is not on record here.

This assay in a line: Induction of autophagy in human H4-LC3 cells assessed as number of spots of LC3-GFP after 4 hrs by DAPI staining. The class given is functional, cell-based.
By EC50 is commonly meant the concentration giving half of the maximal effect. As for `O=c1oc2ccccc2n1C1CCN(CCCC(c2ccc(F)cc2)c2ccc(F)cc2)CC1`, the concentration for a half-maximal effect (EC50) was 8.2 µM.

As for `O=c1sc2ccccc2n1C1CCN(CCCC(c2ccc(F)cc2)c2ccc(F)cc2)CC1`, the concentration giving a half-maximal response (EC50) is above 50 µM.

For the compound `Fc1ccc(C(CCCN2CCC(n3cnc4ccccc43)CC2)c2ccc(F)cc2)cc1`, the EC50 turned out to be 4.2 µM.

As for `O=[N+]([O-])c1ccc2c(cnn2C2CCN(CCCC(c3ccc(F)cc3)c3ccc(F)cc3)CC2)c1`, the EC50 came to 4.5 µM.

Consider `Fc1ccc(C(CCCN2CCC(n3nnc4ccccc43)CC2)c2ccc(F)cc2)cc1`, for which the concentration for a half-maximal effect (EC50) was above 50 µM.

Take `Fc1ccc(C(CCCN2CCC(N3CCc4ccccc43)CC2)c2ccc(F)cc2)cc1`: the EC50 is 3.8 µM.

Turning to `Fc1ccc(C(CCCN2CCC(c3c[nH]c4ccccc34)CC2)c2ccc(F)cc2)cc1`, the half-maximal effective concentration (EC50) turned out to be 6.4 µM.

As to `Fc1ccc(C(CCCN2CCC(N3Cc4ccccc4C3)CC2)c2ccc(F)cc2)cc1`, the concentration for a half-maximal effect (EC50) was determined as 4.1 µM.

As for `O=C1c2ccccc2C(=O)N1C1CCN(CCCC(c2ccc(F)cc2)c2ccc(F)cc2)CC1`, the concentration giving a half-maximal response (EC50) is above 50 µM.

Regarding `Fc1ccc(C(CCCN2CCC(n3nc4ccccc4n3)CC2)c2ccc(F)cc2)cc1`, the concentration giving a half-maximal response (EC50) was above 50 µM.

Regarding `Fc1ccc(C(CCCN2CCC(c3nc4ccccc4[nH]3)CC2)c2ccc(F)cc2)cc1`, the EC50 worked out at 4 µM.

As to `Fc1ccc(C(CCCN2CCC(c3nc4ccccc4o3)CC2)c2ccc(F)cc2)cc1`, the EC50 was determined as 11.2 µM.

Take `Fc1ccc(C(CCCN2CCC(c3nc4ccccc4s3)CC2)c2ccc(F)cc2)cc1`: the EC50 was determined as 10.6 µM.

As for `O=C1NCc2ccccc2N1C1CCN(CCCC(c2ccc(F)cc2)c2ccc(F)cc2)CC1`, the half-maximal effective concentration (EC50) is 2.9 µM.

For `O=S1(=O)NCc2ccccc2N1C1CCN(CCCC(c2ccc(F)cc2)c2ccc(F)cc2)CC1`, the EC50 is 10.2 µM.

In the case of `Fc1ccc(C(CCCN2CCC(N3CCc4ccccc4C3)CC2)c2ccc(F)cc2)cc1`, the EC50 turned out to be 6 µM.

In the case of `O=C1Oc2ccccc2CN1C1CCN(CCCC(c2ccc(F)cc2)c2ccc(F)cc2)CC1`, the half-maximal effective concentration (EC50) was 4.1 µM.

`O=C1Nc2ccccc2CN1C1CCN(CCCC(c2ccc(F)cc2)c2ccc(F)cc2)CC1`: the half-maximal effective concentration (EC50) came out at 1.3 µM.

For the compound `O=S1(=O)Nc2ccccc2CN1C1CCN(CCCC(c2ccc(F)cc2)c2ccc(F)cc2)CC1`, the concentration for a half-maximal effect (EC50) was found to be 21.7 µM.

Take `O=c1c2ccccc2nnn1C1CCN(CCCC(c2ccc(F)cc2)c2ccc(F)cc2)CC1`: the concentration giving a half-maximal response (EC50) amounted to 7.8 µM.

For `O=c1[nH]c2ccccc2c(=O)n1C1CCN(CCCC(c2ccc(F)cc2)c2ccc(F)cc2)CC1`, the half-maximal effective concentration (EC50) stood at 2.8 µM.

Regarding `FC(F)(F)c1ccc(C(CCCN2CCC(N3CCc4ccccc43)CC2)c2ccc(C(F)(F)F)cc2)cc1`, the EC50 was 1.2 µM.

`FC(F)(F)c1ccc(C(CCCN2CCC(c3c[nH]c4ccccc34)CC2)c2ccc(C(F)(F)F)cc2)cc1`: the EC50 came out at 0.45 µM.

As to `FC(F)(F)c1ccc(C(CCCN2CCC(N3Cc4ccccc4C3)CC2)c2ccc(C(F)(F)F)cc2)cc1`, the EC50 stood at 1.5 µM.

With `FC(F)(F)c1ccc(C(CCCN2CCC(c3nc4ccccc4[nH]3)CC2)c2ccc(C(F)(F)F)cc2)cc1`, the EC50 is 0.9 µM.

Turning to `N#CC(CCCN1CCC(N2CCc3ccccc32)CC1)(c1ccccc1)c1ccccc1`, the EC50 came out at 4.5 µM.

As for `N#CC(CCCN1CCC(c2c[nH]c3ccccc23)CC1)(c1ccccc1)c1ccccc1`, the concentration giving a half-maximal response (EC50) is 2.6 µM.

`N#CC(CCCN1CCC(N2Cc3ccccc3C2)CC1)(c1ccccc1)c1ccccc1`: the EC50 was found to be 7.1 µM.

Turning to `N#CC(CCCN1CCC(c2nc3ccccc3[nH]2)CC1)(c1ccccc1)c1ccccc1`, the EC50 amounted to 8.5 µM.

Turning to `Fc1ccc(C(CCCN2CCN(c3nsc4ccccc34)CC2)c2ccc(F)cc2)cc1`, the 50% effective concentration (EC50) stood at 10.1 µM.

In the case of `O=C1NC2(CCN(CCCC(c3ccc(F)cc3)c3ccc(F)cc3)CC2)Nc2ccccc21`, the EC50 is 1.9 µM.

In the case of `Fc1ccc(C(CCCN2CCC(c3noc4cc(F)ccc34)CC2)c2ccc(F)cc2)cc1`, the EC50 was above 50 µM.

Take `O=c1[nH]c2ccccc2n1C1CCN(CCCC(c2ccc(F)cc2)c2ccc(F)cc2)CC1` [PIMOZIDE]: the EC50 stood at 5.4 µM.
